Laboratory results: patent US20090054521A1, “ZWITTERIONIC COMPOUNDS AND USE THEREOF” (Evonik Goldschmidt GmbH, priority 2007, published 2009)

Columns and labels:
[1] = system: skin models (reconstituted human epidermis, SkinEthic); test: Anti-inflammatory effect (IL-1α) of an O/W cream after SDS damage; assay type: cell-based; conditions: no test formulation, summed IL-1α after 24 and 48 h
Description: IL1-α is a messenger which plays a central role in inflammatory reactions in the body. Sodium lauryl sulphate (SDS) is a skin-irritative surfactant which can cause an irritative contact dermatitis in people, is used as model irritative in subject studies and, inter alia, induces the release of IL-1α. The IL-1α concentration was determined using a commercially available test kit (human IL-1α immunoassay, R&D Systems GmbH, Wiesbaden, Germany).
The aim was to investigate whether the anti-inflammatory effect of the compounds according to the invention is also present upon application from a cosmetic formulation. For this purpose, skin models were damaged with SDS. The test formulation was then applied. 24 and 48 h after the application, the Il-1α concentration was determined.

[2] = system: skin models (reconstituted human epidermis, SkinEthic); test: LDH release following damage to the cells with SDS, O/W cream; conditions: SDS damage for 40 min, no test formulation; total LDH after 24 and 48 h
Description: The LDH concentration was determined using a commercially available test kit (LDH test kit, Roche Diagnostics, Mannheim, Germany).
Sodium dodecyl sulphate (SDS) is known to attack the cell membrane and lead to increased LDH release. Using the experiment described below, the aim was to investigate to what extent Compound 2.1 can protect the cells following damage with SDS.
The skin models were damaged with SDS for 40 min. The test formulation, an O/W cream with 1 or 4% of Compound 2.1, was then applied. The LDH release was measured 24 and 48 h after application of the test formulation.

## CCCCCCCCCCCCOS(=O)(=O)[O-].[Na+] [SDS, Sodium dodecyl sulphate]
[1]
  formation of the cytokine IL-1α as a result of the damage: increased greatly
[2]
  LDH release as a result of the damage: increased greatly
